Patent US9260417B2, “Therapeutic methods and compositions involving allosteric kinase inhibition” (AMITECH THERAPEUTIC SOLUTIONS, INC., priority 2010, dated 2016)

Tests used:
[1] = biological target: AMPK-alpha1 (Homo sapiens (Human), UniProt Q13131); assay: KINOMEscan competitive binding assay; conditions: 10 uM
From the text: (§1) In vitro kinase screen and competitive binding assay. Sorafenib as well as test compounds were submitted to Invitrogen and screened using their SelectScreen™ Profiling Service.

[2] = biological target: BRAF(V600E) (Homo sapiens (Human), UniProt P15056, V600E); assay: KINOMEscan competitive binding assay; conditions: 10 uM
From the text: as §1

[3] = biological target: CDK5 (Homo sapiens (Human), UniProt Q00535); assay: KINOMEscan competitive binding assay; conditions: 10 uM
From the text: as §1

[4] = biological target: CDK7 (Homo sapiens (Human), UniProt P50613); assay: KINOMEscan competitive binding assay; conditions: 10 uM
From the text: as §1

[5] = biological target: CLK2 (Homo sapiens (Human), UniProt P49760); assay: KINOMEscan competitive binding assay; conditions: 10 uM
From the text: as §1

[6] = biological target: EPHA2 (Homo sapiens (Human), UniProt P29317); assay: KINOMEscan competitive binding assay; conditions: 10 uM
From the text: as §1

[7] = biological target: EPHB4 (Homo sapiens (Human), UniProt P54760); assay: KINOMEscan competitive binding assay; conditions: 10 uM
From the text: as §1

[8] = biological target: ERK2 (Homo sapiens (Human), UniProt P28482); assay: KINOMEscan competitive binding assay; conditions: 10 uM
From the text: as §1

[9] = biological target: FAK (Homo sapiens (Human), UniProt Q05397); assay: KINOMEscan competitive binding assay; conditions: 10 uM
From the text: as §1

[10] = biological target: FLT1 (Homo sapiens (Human), UniProt P17948); assay: KINOMEscan competitive binding assay; conditions: 10 uM
From the text: as §1

[11] = biological target: FLT3 D835Y (Homo sapiens (Human), UniProt P36888, D835Y); assay: KINOMEscan competitive binding assay; conditions: 10 uM
From the text: as §1

[12] = biological target: FLT3(D835H) (Homo sapiens (Human), UniProt P36888, D835H); assay: KINOMEscan competitive binding assay; conditions: 10 uM
From the text: as §1

[13] = tested on: FLT3(ITD); assay: KINOMEscan competitive binding assay; conditions: 10 uM
From the text: as §1

[14] = biological target: FLT3(N841I) (Homo sapiens (Human), UniProt P36888, N841I); assay: KINOMEscan competitive binding assay; conditions: 10 uM
From the text: as §1

[15] = biological target: INSR (Homo sapiens (Human), UniProt P06213); assay: KINOMEscan competitive binding assay; conditions: 10 uM
From the text: as §1

[16] = tested on: KIT(D616V); assay: KINOMEscan competitive binding assay; conditions: 10 uM
From the text: as §1

[17] = biological target: KIT(V559D) (Homo sapiens (Human), UniProt P10721, V559D); assay: KINOMEscan competitive binding assay; conditions: 10 uM
From the text: as §1

[18] = biological target: LIMK2 (Homo sapiens (Human), UniProt P53671); assay: KINOMEscan competitive binding assay; conditions: 10 uM
From the text: as §1

[19] = biological target: MEK1 (Homo sapiens (Human), UniProt Q02750); assay: KINOMEscan competitive binding assay; conditions: 10 uM
From the text: as §1

[20] = biological target: MET (Homo sapiens (Human), UniProt P08581); assay: KINOMEscan competitive binding assay; conditions: 10 uM
From the text: as §1

[21] = biological target: PAK4 (Homo sapiens (Human), UniProt O96013); assay: KINOMEscan competitive binding assay; conditions: 10 uM
From the text: as §1

[22] = biological target: PRKCD (Homo sapiens (Human), UniProt Q05655); assay: KINOMEscan competitive binding assay; conditions: 10 uM
From the text: as §1

[23] = biological target: RIPK1 (Homo sapiens (Human), UniProt Q13546); assay: KINOMEscan competitive binding assay; conditions: 10 uM
From the text: as §1

[24] = biological target: TIE2 (Homo sapiens (Human), UniProt Q02763); assay: KINOMEscan competitive binding assay; conditions: 10 uM
From the text: as §1

[25] = biological target: TRKA (Homo sapiens (Human), UniProt P04629); assay: KINOMEscan competitive binding assay; conditions: 10 uM
From the text: as §1

[26] = biological target: CDK8 (Homo sapiens (Human), UniProt P49336); assay: KINOMEscan competitive binding assay; conditions: 10 uM
[27] = biological target: DYRK1B (Homo sapiens (Human), UniProt Q9Y463); assay: KINOMEscan competitive binding assay; conditions: 10 uM
[28] = Pharmacokinetic analysis in mice; format: in vivo
[29] = tested on: neointimal hyperplasia; assay: Mouse carotid artery wire-injury model of neointimal hyperplasia; format: in vivo, mice
Experimental: (FIG. 11A) Mouse carotid arteries were wire-injured as described in the Methods. […] (FIG. 11C) The corresponding percent stenosis (reflecting luminal narrowing) was calculated as described herein, *p<0.01. Error bars are reported as ±SEM. (FIG. 11D) PDGFRβ autophosphorylation in the injured arteries was measured on day 14, 4 h post-dose.
Restenosis is a process that commonly results from balloon angioplasty and/or stent placement resulting in eventual occlusion of arteries by a process described as neointimal hyperplasia (NIH). […] Therefore, the combination of PDGFRβ/B-RAF inhibition would be an ideal treatment for NIH. […] Mouse carotid arteries were wire-injured and treated the following day with 100 mg/kg, qd, via oral gavage. Representative sections of the injured arteries, stained with hematoxylin and eosin (FIG. 11A), were used to calculate the intimal/medial ratio—a measurement of the thickness of the inner two layers of the artery wall, which correlates with the size of the vessel lumen. […] As a pharmacodynamic endpoint, representative arteries were excised 4 h after the final dose and lysates were immunoblotted to detect activated PDGFRβ.

[30] = tested on: A549 cells; assay: Cell proliferation assay (BrdU ELISA) in A549 cells; format: cell-based; conditions: A549, low serum DMEM (0.5% FBS), 72 h
Experimental: A549 cells, which endogenously express oncogenic K-RAS, were plated at 2500 cells/well of a 96-well plate in low serum DMEM (0.5% fetal bovine serum) overnight. The next morning, compounds were serially diluted in DMSO and resuspended in fresh DMEM+0.5% medium, which was added to the cells for 72 h. At this time point the cells were fixed and proliferation was quantified using an ELISA for bromodeoxyuriding incorporation (BrdU ELISA, Millipore, Inc.). BrdU incorporation occurs during S phase and is the classical method for determining cell proliferation rates. In FIG. 14B-C, BrdU incorporation is expressed as a percentage of the BrdU incorporation occurring in cells treated with 0.1% DMSO as control. A dotted line represents the growth rate of cells treated with DMSO alone. […] (FIG. 13C)

Sequence of TIE2 (Q02763 23-1124): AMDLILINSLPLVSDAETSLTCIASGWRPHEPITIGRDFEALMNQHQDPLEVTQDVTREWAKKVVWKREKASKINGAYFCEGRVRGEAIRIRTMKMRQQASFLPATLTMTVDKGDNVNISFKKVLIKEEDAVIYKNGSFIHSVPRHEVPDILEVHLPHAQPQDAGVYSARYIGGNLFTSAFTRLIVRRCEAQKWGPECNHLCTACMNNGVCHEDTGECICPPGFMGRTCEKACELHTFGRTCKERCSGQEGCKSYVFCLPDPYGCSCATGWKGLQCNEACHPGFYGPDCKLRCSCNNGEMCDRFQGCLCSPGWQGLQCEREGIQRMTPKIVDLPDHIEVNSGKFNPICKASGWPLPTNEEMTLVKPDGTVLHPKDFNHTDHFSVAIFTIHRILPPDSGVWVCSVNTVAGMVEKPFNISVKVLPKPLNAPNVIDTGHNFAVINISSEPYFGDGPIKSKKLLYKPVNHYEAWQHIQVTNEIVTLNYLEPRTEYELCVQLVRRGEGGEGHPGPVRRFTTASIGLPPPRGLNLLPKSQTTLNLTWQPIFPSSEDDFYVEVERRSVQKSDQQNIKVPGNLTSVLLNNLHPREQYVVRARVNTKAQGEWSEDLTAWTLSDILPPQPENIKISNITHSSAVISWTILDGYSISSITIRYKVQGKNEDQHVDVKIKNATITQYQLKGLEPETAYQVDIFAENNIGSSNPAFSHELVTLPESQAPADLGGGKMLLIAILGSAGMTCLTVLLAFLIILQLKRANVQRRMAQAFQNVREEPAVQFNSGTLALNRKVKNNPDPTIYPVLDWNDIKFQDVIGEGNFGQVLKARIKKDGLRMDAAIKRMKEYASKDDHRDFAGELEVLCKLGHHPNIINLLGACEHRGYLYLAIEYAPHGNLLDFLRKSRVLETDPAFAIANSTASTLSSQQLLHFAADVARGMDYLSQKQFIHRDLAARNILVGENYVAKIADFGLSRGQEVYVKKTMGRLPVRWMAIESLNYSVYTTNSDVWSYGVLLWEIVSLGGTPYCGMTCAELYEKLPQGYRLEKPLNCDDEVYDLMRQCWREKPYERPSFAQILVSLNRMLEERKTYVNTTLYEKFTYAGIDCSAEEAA
Sequence of CDK7 (P50613 whole entry): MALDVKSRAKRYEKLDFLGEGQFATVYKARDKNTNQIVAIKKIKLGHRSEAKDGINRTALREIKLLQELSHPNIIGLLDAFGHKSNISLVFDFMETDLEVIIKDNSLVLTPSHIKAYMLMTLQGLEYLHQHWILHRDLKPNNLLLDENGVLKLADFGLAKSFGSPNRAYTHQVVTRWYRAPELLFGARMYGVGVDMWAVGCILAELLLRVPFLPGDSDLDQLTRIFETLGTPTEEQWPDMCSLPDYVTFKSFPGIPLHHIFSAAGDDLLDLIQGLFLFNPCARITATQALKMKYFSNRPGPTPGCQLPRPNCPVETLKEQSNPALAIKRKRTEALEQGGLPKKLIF
Sequence of INSR (P06213 28-1382): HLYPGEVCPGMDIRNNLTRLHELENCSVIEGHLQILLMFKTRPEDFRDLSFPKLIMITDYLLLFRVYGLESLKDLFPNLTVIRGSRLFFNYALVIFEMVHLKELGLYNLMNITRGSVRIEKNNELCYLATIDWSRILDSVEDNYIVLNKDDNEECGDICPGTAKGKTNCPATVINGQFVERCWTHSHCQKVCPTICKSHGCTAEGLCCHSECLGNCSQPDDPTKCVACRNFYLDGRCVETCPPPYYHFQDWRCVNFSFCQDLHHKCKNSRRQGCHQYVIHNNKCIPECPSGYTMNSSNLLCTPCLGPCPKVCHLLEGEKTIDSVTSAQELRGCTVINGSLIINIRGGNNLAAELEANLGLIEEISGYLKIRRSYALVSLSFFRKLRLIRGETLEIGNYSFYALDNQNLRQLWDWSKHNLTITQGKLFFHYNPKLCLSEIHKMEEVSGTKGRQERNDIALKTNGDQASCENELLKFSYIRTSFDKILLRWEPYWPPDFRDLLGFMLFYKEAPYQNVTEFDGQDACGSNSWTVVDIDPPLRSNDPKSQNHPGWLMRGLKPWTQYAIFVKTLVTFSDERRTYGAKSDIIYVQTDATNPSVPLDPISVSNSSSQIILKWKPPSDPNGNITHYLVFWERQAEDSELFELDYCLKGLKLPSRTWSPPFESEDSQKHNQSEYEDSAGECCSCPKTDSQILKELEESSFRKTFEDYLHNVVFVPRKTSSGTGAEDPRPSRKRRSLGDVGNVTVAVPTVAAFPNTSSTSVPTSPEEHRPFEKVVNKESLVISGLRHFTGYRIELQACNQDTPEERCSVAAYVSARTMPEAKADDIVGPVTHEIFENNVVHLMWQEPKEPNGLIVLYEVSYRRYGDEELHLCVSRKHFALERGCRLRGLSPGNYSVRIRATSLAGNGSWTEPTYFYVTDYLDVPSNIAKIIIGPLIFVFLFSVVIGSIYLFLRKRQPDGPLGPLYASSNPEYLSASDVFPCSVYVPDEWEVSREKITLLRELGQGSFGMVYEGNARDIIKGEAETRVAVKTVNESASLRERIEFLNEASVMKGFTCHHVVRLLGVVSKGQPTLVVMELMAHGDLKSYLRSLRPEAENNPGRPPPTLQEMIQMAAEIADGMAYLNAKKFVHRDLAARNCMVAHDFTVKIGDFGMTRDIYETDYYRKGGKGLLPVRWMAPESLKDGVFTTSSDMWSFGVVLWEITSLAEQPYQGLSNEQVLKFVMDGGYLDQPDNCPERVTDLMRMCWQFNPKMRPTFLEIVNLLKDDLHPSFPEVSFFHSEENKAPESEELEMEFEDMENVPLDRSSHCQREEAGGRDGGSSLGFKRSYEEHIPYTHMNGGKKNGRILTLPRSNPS
Sequence of EPHB4 (P54760 16-987): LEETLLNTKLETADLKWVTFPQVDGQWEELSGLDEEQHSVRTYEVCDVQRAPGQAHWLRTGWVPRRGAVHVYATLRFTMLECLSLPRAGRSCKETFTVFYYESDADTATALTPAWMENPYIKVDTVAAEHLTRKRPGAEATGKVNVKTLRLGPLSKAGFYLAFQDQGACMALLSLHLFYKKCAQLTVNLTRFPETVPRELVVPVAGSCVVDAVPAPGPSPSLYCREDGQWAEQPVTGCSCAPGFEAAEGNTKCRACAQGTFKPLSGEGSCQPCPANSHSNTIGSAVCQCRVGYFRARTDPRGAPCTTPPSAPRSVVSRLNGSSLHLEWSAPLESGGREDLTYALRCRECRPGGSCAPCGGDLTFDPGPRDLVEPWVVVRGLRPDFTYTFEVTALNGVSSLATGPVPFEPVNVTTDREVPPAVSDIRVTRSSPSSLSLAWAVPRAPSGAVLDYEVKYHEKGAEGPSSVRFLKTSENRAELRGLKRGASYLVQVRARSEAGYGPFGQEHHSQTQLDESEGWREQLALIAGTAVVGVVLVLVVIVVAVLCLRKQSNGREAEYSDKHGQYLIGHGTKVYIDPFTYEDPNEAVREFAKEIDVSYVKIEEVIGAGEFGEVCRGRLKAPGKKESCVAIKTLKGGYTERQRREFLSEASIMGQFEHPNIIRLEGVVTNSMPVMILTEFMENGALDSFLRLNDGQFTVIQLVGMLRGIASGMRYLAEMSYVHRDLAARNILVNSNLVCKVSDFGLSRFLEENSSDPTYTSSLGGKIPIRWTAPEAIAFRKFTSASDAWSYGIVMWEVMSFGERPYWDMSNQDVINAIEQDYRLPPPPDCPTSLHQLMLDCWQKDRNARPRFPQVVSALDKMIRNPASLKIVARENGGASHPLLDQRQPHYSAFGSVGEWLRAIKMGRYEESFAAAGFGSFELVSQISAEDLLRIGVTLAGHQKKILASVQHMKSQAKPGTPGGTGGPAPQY
Sequence of PRKCD (Q05655 whole entry): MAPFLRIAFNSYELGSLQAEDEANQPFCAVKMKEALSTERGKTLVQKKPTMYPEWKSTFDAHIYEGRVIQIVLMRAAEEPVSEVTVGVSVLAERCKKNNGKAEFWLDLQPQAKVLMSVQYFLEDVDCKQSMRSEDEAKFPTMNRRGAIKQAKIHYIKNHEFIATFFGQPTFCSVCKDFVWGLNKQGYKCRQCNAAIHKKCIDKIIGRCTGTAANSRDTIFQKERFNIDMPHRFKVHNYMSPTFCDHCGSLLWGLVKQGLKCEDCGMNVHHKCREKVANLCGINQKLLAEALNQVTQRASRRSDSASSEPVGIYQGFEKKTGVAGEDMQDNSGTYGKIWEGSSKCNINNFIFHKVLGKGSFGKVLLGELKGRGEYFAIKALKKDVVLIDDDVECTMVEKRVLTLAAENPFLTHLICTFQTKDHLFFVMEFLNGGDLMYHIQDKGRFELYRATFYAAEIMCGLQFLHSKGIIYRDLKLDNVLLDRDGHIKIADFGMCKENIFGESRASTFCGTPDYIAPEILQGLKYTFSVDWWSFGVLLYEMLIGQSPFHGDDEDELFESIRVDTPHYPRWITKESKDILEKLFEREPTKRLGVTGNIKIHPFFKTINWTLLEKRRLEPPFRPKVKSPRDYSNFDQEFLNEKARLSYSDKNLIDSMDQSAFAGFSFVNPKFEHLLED
Sequence of CDK5 (Q00535 whole entry): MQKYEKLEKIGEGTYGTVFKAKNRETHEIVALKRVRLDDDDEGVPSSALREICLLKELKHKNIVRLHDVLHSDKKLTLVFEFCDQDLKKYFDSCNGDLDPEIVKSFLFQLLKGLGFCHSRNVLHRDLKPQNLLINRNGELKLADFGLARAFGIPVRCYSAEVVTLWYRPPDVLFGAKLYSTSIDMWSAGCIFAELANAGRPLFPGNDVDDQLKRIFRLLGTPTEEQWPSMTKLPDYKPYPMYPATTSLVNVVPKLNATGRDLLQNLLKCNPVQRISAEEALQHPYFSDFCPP
Sequence of BRAF(V600E) (P15056 457-717 V600E): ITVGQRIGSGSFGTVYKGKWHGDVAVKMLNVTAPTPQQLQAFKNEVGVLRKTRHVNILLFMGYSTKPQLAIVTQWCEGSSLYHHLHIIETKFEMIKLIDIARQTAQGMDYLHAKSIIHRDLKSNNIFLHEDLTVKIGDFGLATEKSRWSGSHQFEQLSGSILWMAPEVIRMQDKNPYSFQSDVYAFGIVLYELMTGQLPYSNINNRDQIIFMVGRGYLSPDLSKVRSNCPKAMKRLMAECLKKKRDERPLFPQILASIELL

CSc1nc(N)cc(Oc2ccc(-c3nnc(Nc4cccc(C(F)(F)F)c4)[nH]3)cc2)n1 [Compound 6]
% Control [1]: 72%
% Control [2]: 98%
% Control [3]: 88%
% Control [4]: 97%
% Control [5]: 84%
% Control [6]: 100%
% Control [7]: 94%
% Control [8]: 90%
% Control [9]: 100%
% Control [10]: 81%
% Control [11]: 18%
% Control [12]: 17%
% Control [13]: 3.1%
% Control [14]: 3.1%
% Control [15]: 100%
% Control [16]: 76%
% Control [17]: 0.1%
% Control [18]: 72%
% Control [19]: 84%
% Control [20]: 94%
% Control [21]: 100%
% Control [22]: 74%
% Control [23]: 84%
% Control [24]: 88%
% Control [25]: 64%
% Control [26]: 67%
% Control [27]: 85%
AUC0-12h ([28]; 50 mg/kg, ip, bid): 14700 ng·h/mL
T1/2 ([28]; 50 mg/kg, ip, bid): 11.5 h
AUC0-24h ([28]; 100 mg/kg, oral): 8700 ng·h/mL
Cmax (printed C.) ([28]; 100 mg/kg, oral): 4900 ng/mL
T1/2 ([28]; 100 mg/kg, oral): 6.1 h
percent stenosis ([29]; 100 mg/kg, qd, oral gavage, 14 days): greatly reduced
PDGFRβ activation in injured arteries ([29]; 4 h after the final dose): inhibited PDGFRβ activation
cell proliferation (BrdU incorporation) versus DMSO control [30]: inhibitor cell proliferation
